The test concerns T4-2 tumor nodules. Kind of test: Apoptosis (TUNEL assay combined with DAPI scoring of pyknotic and karyorrhectic nuclei) of T4-2 tumor nodules treated with chemotherapeutic drugs. It is filed as cell-based. Particulars: for sensitivity of tumor nodules to drug (apoptosis): T4-2 nodules cocultured with S1 non-neoplastic breast epithelium on flat surfaces compared to monocultures of tumor nodules, FIG. 21 and 22; for sensitivity of cancer cells to drug (apoptosis): T4-2 nodules cocultured with S1 within semicircular hemichannels versus on flat surfaces. The text has this:
The findings described above prompted a test of the sensitivity of T4-2 tumor nodules to the chemotherapeutic drugs bleomycin (BLM, a radiomimetic agent used in the laboratory to study cellular responses to treatments that compromise genome integrity) and doxorubicin (DOX, an anthracycline used for the treatment of breast cancer). In this study, apoptosis was utilized as an endpoint to evaluate drug responses and was quantified using the TUNEL assay combined with visual scoring for pyknotic and karyorrhectic nuclei via DAPI staining (i.e. nuclear condensation and fragmentation, respectively). Three types of T4-2 nodules were compared: monocultures, cocultures with S1 luminal epithelium on the flat surface of the chip, and cocultures with S1 epithelium in the semicircular hemichannels.
This difference is intriguing and could not be explained by the proliferation status within nodules on flat surfaces and in hemichannels (27.5%±1.8% and 24.2%±2.5% Ki67-positive cells, respectively; P=0.292, unpaired t-test, n>10 nodule sections corresponding to >700 nuclei). […] It is possible that the microenvironment or the geometry in the hemichannels promotes modifications in the nuclear organization of tumor cells, which may influence cellular responses to cytotoxic drugs. This view is supported by the measured differences in nuclear circularity reported above, and is in agreement with early recommendations that nuclear morphometric descriptors, including roundness, should be investigated as possible predictors of response to therapy. The disease-on-a-chip system used for coculture with cancer cells provides a system with potential for improved understanding of cancer development and drug assessment in tissue context.

With `COc1cccc2c1C(=O)c1c(O)c3c(c(O)c1C2=O)C[C@@](O)(C(=O)CO)C[C@@H]3O[C@H]1C[C@H](N)[C@H](O)[C@H](C)O1` [DOX, doxorubicin], the “sensitivity of tumor nodules to drug (apoptosis)” value is reported as “increased sensitivity” and the “sensitivity of cancer cells to drug (apoptosis)” value is on record as “significantly less”.

With bleomycin [BLM], the “sensitivity of tumor nodules to drug (apoptosis)” value is “increased sensitivity” and the “sensitivity of cancer cells to drug (apoptosis)” value is “significantly less”. For the same compound, under “drug concentration chosen to ease detection of increased sensitivity to genotoxic stress, should minimally affect cell survival”, the “toxicity to T4-2 nodules” value is “low toxicity”.

(Values after patent US9969964B2, “Disease-on-a-chip” (Purdue Research Foundation, priority 2013, dated 2018).)
